According to patent US5571825A, “Method of selectively inhibiting prostaglandin G/H synthase-2” (Warner-Lambert Company, priority 1995, dated 1996):

target: T1, prostaglandin G/H synthase-2 (Ovis aries, UniProt P79208); test: Inhibition of prostaglandin G/H synthase-2 (conversion of [14C]arachidonic acid to products); type: biochemical; conditions: pH 7.4, 10 μM; enzyme purified from sheep placenta; 15 min preincubation, pH 7.4, room temperature; read-out: % Inhibition of PGHS-2 at 10 μM
T1 construct: purified from sheep placenta; from tissue; host or cells: sheep placenta
T1 sequence (P79208 17-603): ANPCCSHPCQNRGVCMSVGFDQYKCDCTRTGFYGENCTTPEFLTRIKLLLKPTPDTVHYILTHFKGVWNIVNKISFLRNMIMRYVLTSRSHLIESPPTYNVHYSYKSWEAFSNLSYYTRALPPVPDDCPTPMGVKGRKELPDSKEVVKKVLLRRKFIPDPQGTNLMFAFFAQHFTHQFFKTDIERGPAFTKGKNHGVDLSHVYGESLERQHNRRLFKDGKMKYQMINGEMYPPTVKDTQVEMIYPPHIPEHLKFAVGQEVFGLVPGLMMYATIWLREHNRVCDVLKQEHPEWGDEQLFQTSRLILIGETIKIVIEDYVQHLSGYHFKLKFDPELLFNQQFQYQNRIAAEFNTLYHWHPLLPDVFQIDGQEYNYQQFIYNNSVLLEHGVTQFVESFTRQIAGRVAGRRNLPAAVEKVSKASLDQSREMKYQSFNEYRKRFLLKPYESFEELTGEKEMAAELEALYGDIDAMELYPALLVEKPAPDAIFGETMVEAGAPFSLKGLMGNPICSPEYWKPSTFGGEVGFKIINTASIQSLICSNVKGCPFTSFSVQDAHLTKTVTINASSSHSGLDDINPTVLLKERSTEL
Procedure: (§1) The compounds of the present invention were evaluated as selective inhibitors of prostaglandin G/H synthase-2 by determining the effect of the compounds on the conversion of [^14 C]arachidonic acid to products by prostaglandin G/H synthase-2 purified from sheep placenta. This enzyme shares immunoreactivity and sequence homology with human prostaglandin G/H synthase-2. The effects of the compounds on prostaglandin G/H synthase-1 purified from ram seminal vesicles is used for the evaluation of inhibitory selectivity.
(§2) Each compound was preincubated for 15 minutes at room temperature in 50 mM sodium phosphate buffer at pH 7.4 containing 3.33 mM reduced glutathione, 2.67 mM epinephrine and 6.6% dimethylsulfoxide with sufficient enzyme to cause approximately 30% conversion of substrate to products after 15 minutes incubation in the absence of inhibitory compounds. Reactions with 24 μM arachidonic acid are initiated by the addition of a one third volume of 50 mM sodium phosphate buffer, pH 7.4, containing 3.33 mM reduced glutathione, 2.67 mM epinephrineβ and [^14 C] arachidonic acid.
(§3) Reactions were terminated after 15 minutes incubation at room temperature by the addition of 1.875 volumes of methanol:acetic acid (100:0.1) containing 0.5 mg/ml triphenylphosphine. The reaction products were separated from the unconverted substrate by high performance liquid chromatography and quantified by on-line radiometric detection. Compound effects were computed as percent inhibition of blank-adjusted mean product formation in uninhibited incubations.

Row | Compound | inhibition at 10 µM [%]
1 | COC(=O)CSC1c2ccccc2-c2ccccc21 [Example 10, Methyl (9-fluorenylthio)acetate] | 30
2 | COC(=O)CSC(c1cccs1)c1cccs1 [Example 9, Methyl [[bis-(2-thienyl)methyl]thio]acetate] | < 10
3 | COC(=O)CSC(c1ccccc1)(c1ccccc1)c1ccccc1 [Example 11, Methyl [(triphenylmethyl)thio]acetate] | 29
4 | COC(=O)CSC1c2ccccc2C=Cc2ccccc21 [Example 15, Methyl (5H-dibenzo[a,d]cyclohepten-5-yl-thio)acetate] | < 10
5 | COC(=O)CSC1c2ccccc2CCc2ccccc21 [Example 17, Methyl (10, 11-dihydro-5H-dibenzo[a,d]cyclohepten-5-yl-thio)acetate] | 8

same assay, conditions: pH 7.4, 100 μM; enzyme purified from sheep placenta; 15 min preincubation, pH 7.4, room temperature; read-out: % Inhibition of PGHS-2 at 100 μM

Row | Compound | inhibition at 100 µM [%]
6 | COC(=O)CSC1c2ccccc2-c2ccccc21 [Example 10, Methyl (9-fluorenylthio)acetate] | 77
7 | COC(=O)CSC(c1cccs1)c1cccs1 [Example 9, Methyl [[bis-(2-thienyl)methyl]thio]acetate] | 33
8 | COC(=O)CSC(c1ccccc1)(c1ccccc1)c1ccccc1 [Example 11, Methyl [(triphenylmethyl)thio]acetate] | 62
9 | COC(=O)CSC1c2ccccc2C=Cc2ccccc21 [Example 15, Methyl (5H-dibenzo[a,d]cyclohepten-5-yl-thio)acetate] | 31
10 | COC(=O)CSC1c2ccccc2CCc2ccccc21 [Example 17, Methyl (10, 11-dihydro-5H-dibenzo[a,d]cyclohepten-5-yl-thio)acetate] | 17

same assay, conditions: pH 7.4, read-out: % Inhibition of PGHS-2 at 10 μM, 10 μM; enzyme purified from sheep placenta; 15 min preincubation, pH 7.4, room temperature

Row | Compound | inhibition at 10 µM [%]
11 | COC(=O)CSC(c1ccccc1Cl)c1ccccc1Cl [Example 7, Methyl [[bis-(2-chlorophenyl)methyl]thio]acetate] | < 10
12 | COC(=O)CSC(c1ccccc1)c1ccccc1 [Example 1, Methyl [(diphenylmethyl)thio]acetate] | 56
13 | COC(=O)CSC(c1ccccc1OC)c1ccccc1OC [Example 8, Methyl [[bis-(2-methoxyphenyl)methyl]thio]acetate] | 14
14 | COC(=O)CSC(c1ccc(C)cc1)c1ccc(C)cc1 [Example 6, Methyl [[bis-(4-methylphenyl)methyl]thio]acetate] | 11

same assay, conditions: pH 7.4, read-out: % Inhibition of PGHS-2 at 100 μM, 100 μM; enzyme purified from sheep placenta; 15 min preincubation, pH 7.4, room temperature

Row | Compound | inhibition at 100 µM [%]
15 | COC(=O)CSC(c1ccccc1Cl)c1ccccc1Cl [Example 7, Methyl [[bis-(2-chlorophenyl)methyl]thio]acetate] | 37
16 | COC(=O)CSC(c1ccccc1)c1ccccc1 [Example 1, Methyl [(diphenylmethyl)thio]acetate] | 84
17 | COC(=O)CSC(c1ccccc1OC)c1ccccc1OC [Example 8, Methyl [[bis-(2-methoxyphenyl)methyl]thio]acetate] | 77
18 | COC(=O)CSC(c1ccc(C)cc1)c1ccc(C)cc1 [Example 6, Methyl [[bis-(4-methylphenyl)methyl]thio]acetate] | 52

target: T2, prostaglandin G/H synthase-1 (Ovis aries, UniProt P05979); test: Inhibition of prostaglandin G/H synthase-1 (conversion of [14C]arachidonic acid to products); type: biochemical; conditions: pH 7.4, 10 μM; enzyme purified from ram seminal vesicles; 15 min preincubation, pH 7.4, room temperature; read-out: % Inhibition of PGHS-1 at 10 μM
T2 construct: purified from ram seminal vesicles; from tissue; host or cells: ram seminal vesicles
T2 sequence (P05979 25-600): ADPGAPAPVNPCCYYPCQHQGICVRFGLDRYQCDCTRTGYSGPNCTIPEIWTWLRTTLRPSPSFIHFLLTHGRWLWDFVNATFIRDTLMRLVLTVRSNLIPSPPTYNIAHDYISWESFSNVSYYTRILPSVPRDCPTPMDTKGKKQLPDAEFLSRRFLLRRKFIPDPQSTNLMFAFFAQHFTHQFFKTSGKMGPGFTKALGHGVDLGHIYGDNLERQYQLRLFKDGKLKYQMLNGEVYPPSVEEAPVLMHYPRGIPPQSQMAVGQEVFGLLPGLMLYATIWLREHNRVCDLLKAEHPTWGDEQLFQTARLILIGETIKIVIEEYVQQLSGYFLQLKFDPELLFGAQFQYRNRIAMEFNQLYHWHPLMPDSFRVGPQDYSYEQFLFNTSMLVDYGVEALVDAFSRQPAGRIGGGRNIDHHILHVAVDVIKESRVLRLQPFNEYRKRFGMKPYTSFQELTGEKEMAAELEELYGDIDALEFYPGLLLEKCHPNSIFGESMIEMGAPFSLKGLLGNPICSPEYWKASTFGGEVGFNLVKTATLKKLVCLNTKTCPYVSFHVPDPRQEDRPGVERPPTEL
Procedure: as §1, §2, §3

Row | Compound | inhibition at 10 µM [%]
19 | COC(=O)CSC1c2ccccc2-c2ccccc21 [Example 10, Methyl (9-fluorenylthio)acetate] | < 10
20 | COC(=O)CSC(c1cccs1)c1cccs1 [Example 9, Methyl [[bis-(2-thienyl)methyl]thio]acetate] | < 10
21 | COC(=O)CSC(c1ccccc1)(c1ccccc1)c1ccccc1 [Example 11, Methyl [(triphenylmethyl)thio]acetate] | < 10
22 | COC(=O)CSC1c2ccccc2C=Cc2ccccc21 [Example 15, Methyl (5H-dibenzo[a,d]cyclohepten-5-yl-thio)acetate] | < 10
23 | COC(=O)CSC1c2ccccc2CCc2ccccc21 [Example 17, Methyl (10, 11-dihydro-5H-dibenzo[a,d]cyclohepten-5-yl-thio)acetate] | < 10

same assay, conditions: pH 7.4, 100 μM; enzyme purified from ram seminal vesicles; 15 min preincubation, pH 7.4, room temperature; read-out: % Inhibition of PGHS-1 at 100 μM

Row | Compound | inhibition at 100 µM [%]
24 | COC(=O)CSC1c2ccccc2-c2ccccc21 [Example 10, Methyl (9-fluorenylthio)acetate] | 18
25 | COC(=O)CSC(c1cccs1)c1cccs1 [Example 9, Methyl [[bis-(2-thienyl)methyl]thio]acetate] | < 10
26 | COC(=O)CSC(c1ccccc1)(c1ccccc1)c1ccccc1 [Example 11, Methyl [(triphenylmethyl)thio]acetate] | 10
27 | COC(=O)CSC1c2ccccc2C=Cc2ccccc21 [Example 15, Methyl (5H-dibenzo[a,d]cyclohepten-5-yl-thio)acetate] | < 10
28 | COC(=O)CSC1c2ccccc2CCc2ccccc21 [Example 17, Methyl (10, 11-dihydro-5H-dibenzo[a,d]cyclohepten-5-yl-thio)acetate] | < 10

same assay, conditions: pH 7.4, read-out: % Inhibition of PGHS-1 at 10 μM, 10 μM; enzyme purified from ram seminal vesicles; 15 min preincubation, pH 7.4, room temperature

Row | Compound | inhibition at 10 µM [%]
29 | COC(=O)CSC(c1ccccc1Cl)c1ccccc1Cl [Example 7, Methyl [[bis-(2-chlorophenyl)methyl]thio]acetate] | < 10
30 | COC(=O)CSC(c1ccccc1)c1ccccc1 [Example 1, Methyl [(diphenylmethyl)thio]acetate] | 20
31 | COC(=O)CSC(c1ccc(C)cc1)c1ccc(C)cc1 [Example 6, Methyl [[bis-(4-methylphenyl)methyl]thio]acetate] | < 10

same assay, conditions: pH 7.4, read-out: % Inhibition of PGHS-1 at 100 μM, 100 μM; enzyme purified from ram seminal vesicles; 15 min preincubation, pH 7.4, room temperature

Row | Compound | inhibition at 100 µM [%]
32 | COC(=O)CSC(c1ccccc1Cl)c1ccccc1Cl [Example 7, Methyl [[bis-(2-chlorophenyl)methyl]thio]acetate] | < 10
33 | COC(=O)CSC(c1ccccc1)c1ccccc1 [Example 1, Methyl [(diphenylmethyl)thio]acetate] | 42
34 | COC(=O)CSC(c1ccc(C)cc1)c1ccc(C)cc1 [Example 6, Methyl [[bis-(4-methylphenyl)methyl]thio]acetate] | < 10
